Reference: ChEMBL document CHEMBL1909528, “Synthesis and 2D QSAR of O-sulphonated β-aminols derivatives as novel antifungal and antibacterial agents” (Bioorg Med Chem Lett, 2011)

Experiments:
Aspergillus fumigatus = assay: Antifungal activity against Aspergillus fumigatus by broth microdilution method; format: functional
Candida parapsilosis = assay: Antifungal activity against Candida parapsilosis ATCC 22019 by broth microdilution method; format: functional; settings: Lodderomyces parapsilosis
Cryptococcus neoformans = assay: Antifungal activity against Cryptococcus neoformans by broth microdilution method; format: functional
[1] = system: Trichophyton mentagrophytes; assay: Antifungal activity against Trichophyton mentagrophytes by broth microdilution method; format: functional, organism-based
Sporothrix schenckii = assay: Antifungal activity against Sporothrix schenckii by broth microdilution method; format: functional, organism-based
Staphylococcus aureus = assay: Antibacterial activity against Staphylococcus aureus ATCC 25923 by broth microdilution method; format: functional, organism-based
Candida albicans = assay: Antifungal activity against Candida albicans by broth microdilution method; format: functional, organism-based
Escherichia coli = assay: Antibacterial activity against Escherichia coli ATCC 9637 by broth microdilution method; format: functional, organism-based

Row | Structure (SMILES) | MIC (Aspergillus fumigatus) | MIC (Candida parapsilosis) | MIC (Cryptococcus neoformans) | MIC [1] | IC50 ([1]; read-out: IC50) | IC50 ([1]; read-out: pIC50 (converted)) | MIC (Sporothrix schenckii) | IC50 (Sporothrix schenckii; read-out: IC50) | IC50 (Sporothrix schenckii; read-out: pIC50 (converted)) | MIC (Staphylococcus aureus) | IC50 (Staphylococcus aureus; read-out: IC50) | IC50 (Staphylococcus aureus; read-out: pIC50 (converted)) | MIC (Candida albicans) | IC50 (Candida albicans; read-out: IC50) | IC50 (Candida albicans; read-out: pIC50 (converted)) | MIC (Escherichia coli) | IC50 (Escherichia coli; read-out: IC50) | IC50 (Escherichia coli; read-out: pIC50 (converted))
1 | O=S(=O)(OC(CNCc1ccccc1)c1ccccc1)c1cccc(Cl)c1Cl (centres undefined) | > 50 µM | > 50 µM | > 50 µM | < 50 µM | 5.89 µM | 5.89 µM | < 50 µM | 15.6 µM | 15.6 µM |  |  |  |  |  |  |  |  | 
2 | O=[N+]([O-])c1cccc(S(=O)(=O)OC(CNCc2ccccc2)c2ccccc2)c1 (centres undefined) | > 50 µM | > 50 µM | > 50 µM |  |  |  |  |  |  | < 50 µM | 0.842 µM | 1.19 µM | < 50 µM | 30.8 µM | 30.8 µM |  |  | 
3 | O=S(=O)(OC(CNCc1ccccc1)c1ccccc1)c1c(Cl)cccc1Cl (centres undefined) | > 50 µM | > 50 µM | > 50 µM | < 50 µM | 44.7 µM | 44.8 µM | < 50 µM | 12 µM | 12 µM | < 50 µM | 11.6 µM | 11.6 µM | < 50 µM | 18 µM | 18 µM |  |  | 
4 | O=S(=O)(OC(CNCc1ccccc1)c1ccccc1)c1ccc(F)cc1 (centres undefined) | > 50 µM | > 50 µM | > 50 µM | < 50 µM | 10.2 µM | 10.2 µM |  |  |  | < 50 µM | 22.6 µM | 22.6 µM | < 50 µM | 41.9 µM | 41.9 µM |  |  | 
5 | CC(C)(C)OC(=O)N(Cc1ccccc1)CC(OS(=O)(=O)c1cccc(Cl)c1Cl)c1ccccc1 (centres undefined) | > 50 µM | > 50 µM | > 50 µM | < 50 µM | 0.33 µM |  | < 50 µM | 26.7 µM | 26.7 µM |  |  |  |  |  |  |  |  | 
6 | CC(C)(C)OC(=O)N(Cc1ccccc1)CC(OS(=O)(=O)c1cccc([N+](=O)[O-])c1)c1ccccc1 (centres undefined) | > 50 µM | > 50 µM | > 50 µM |  |  |  | < 50 µM | 5.95 µM | 5.95 µM |  |  |  |  |  |  |  |  | 
7 | CC(C)(C)OC(=O)N(Cc1ccccc1)CC(OS(=O)(=O)c1c(Cl)cccc1Cl)c1ccccc1 (centres undefined) | > 50 µM | > 50 µM | > 50 µM |  |  |  | < 50 µM | 11.4 µM | 11.4 µM |  |  |  |  |  |  | < 50 µM | 3.13 µM | 3.13 µM
8 | CC(C)(C)OC(=O)N(Cc1ccccc1)CC(OS(=O)(=O)c1ccc(F)cc1)c1ccccc1 (centres undefined) | > 50 µM | > 50 µM | > 50 µM | < 50 µM | 0.46 µM |  | < 50 µM | 8.66 µM | 8.66 µM |  |  |  | < 50 µM | 1.52 µM | 1.52 µM | < 50 µM | 0.83 µM | 1.2 µM
9 | Cc1cc(C)cc(S(=O)(=O)OC(CN(Cc2ccccc2)C(=O)OC(C)(C)C)c2ccccc2)c1 (centres undefined) | > 50 µM | > 50 µM | > 50 µM | < 50 µM | 12.6 µM | 12.6 µM | < 50 µM | 31.2 µM | 31.2 µM |  |  |  | < 50 µM | 41.6 µM | 41.6 µM |  |  | 
10 | CC(C)(C)OC(=O)N(Cc1ccccc1)CC(OS(=O)(=O)c1ccc([N+](=O)[O-])cc1)c1ccccc1 (centres undefined) | > 50 µM | > 50 µM | > 50 µM | < 50 µM | 5.73 µM | 5.73 µM |  |  |  |  |  |  |  |  |  | < 50 µM | 9.02 µM | 9.02 µM
11 | CC(C)(C)OC(=O)N(Cc1ccccc1)CC(OS(=O)(=O)c1ccc(C#N)cc1)c1ccccc1 (centres undefined) | > 50 µM | > 50 µM | > 50 µM | < 50 µM | 9.48 µM | 9.48 µM | < 50 µM | 32.7 µM | 32.7 µM |  |  |  | < 50 µM | 8.59 µM | 8.59 µM | < 50 µM | 18.5 µM | 18.5 µM
12 | CC(C)(C)OC(=O)N(Cc1ccccc1)CC(OS(=O)(=O)c1cccc2ccccc12)c1ccccc1 (centres undefined) | > 50 µM | > 50 µM | > 50 µM | < 50 µM | 5.48 µM | 5.48 µM |  |  |  |  |  |  |  |  |  | < 50 µM | 1.26 µM | 1.26 µM
13 | CC(C)(C)OC(=O)N(Cc1ccccc1)CC(OS(=O)(=O)c1ccccc1C(F)(F)F)c1ccccc1 (centres undefined) | > 50 µM | > 50 µM | > 50 µM | < 50 µM | 24.4 µM | 24.4 µM | < 50 µM | 28.4 µM | 28.4 µM |  |  |  | < 50 µM | 6.44 µM | 6.44 µM |  |  | 
14 | CC(C)(C)OC(=O)N(Cc1ccccc1)CC(OS(=O)(=O)c1ccc2ccccc2c1)c1ccccc1 (centres undefined) | > 50 µM | > 50 µM | > 50 µM | < 50 µM | 2.12 µM | 2.12 µM |  |  |  |  |  |  |  |  |  | < 50 µM | 3.54 µM | 3.54 µM
15 | Cc1ccc(S(=O)(=O)OC(CN(Cc2ccccc2)C(=O)OC(C)(C)C)c2ccccc2)cc1 (centres undefined) | > 50 µM | > 50 µM | > 50 µM | < 50 µM | 11.7 µM | 11.7 µM | < 50 µM | 32.7 µM | 32.7 µM |  |  |  | < 50 µM | 4.07 µM | 4.07 µM | < 50 µM | 7.5 µM | 7.5 µM
16 | CC(C)(C)OC(=O)N(Cc1ccccc1)CC(OS(=O)(=O)c1ccc([N+](=O)[O-])cc1[N+](=O)[O-])c1ccccc1 (centres undefined) | > 50 µM | > 50 µM | > 50 µM |  |  |  |  |  |  |  |  |  | < 50 µM | 0.54 µM |  | < 50 µM | 23.3 µM | 23.3 µM

Row | Structure (SMILES) | MIC (Aspergillus fumigatus) | MIC (Candida parapsilosis) | MIC (Cryptococcus neoformans) | MIC [1] | IC50 ([1]; read-out: IC50) | IC50 ([1]; read-out: pIC50 (converted)) | MIC (Sporothrix schenckii) | IC50 (Sporothrix schenckii; read-out: IC50) | IC50 (Sporothrix schenckii; read-out: pIC50 (converted)) | MIC (Staphylococcus aureus) | IC50 (Staphylococcus aureus; read-out: IC50) | IC50 (Staphylococcus aureus; read-out: pIC50 (converted)) | MIC (Candida albicans) | IC50 (Candida albicans; read-out: IC50) | IC50 (Candida albicans; read-out: pIC50 (converted)) | MIC (Escherichia coli) | IC50 (Escherichia coli; read-out: IC50) | IC50 (Escherichia coli; read-out: pIC50 (converted))
17 | CC(C)c1cc(C(C)C)c(S(=O)(=O)OC(CN(Cc2ccccc2)C(=O)OC(C)(C)C)c2ccccc2)c(C(C)C)c1 (centres undefined) | > 50 µM | > 50 µM | > 50 µM | < 50 µM | 6.11 µM | 6.11 µM | < 50 µM | 46.4 µM | 46.4 µM |  |  |  | < 50 µM | 12.5 µM | 12.5 µM |  |  | 
18 | COc1ccc(CN(CC(OS(=O)(=O)c2cccc([N+](=O)[O-])c2)c2ccccc2)C(=O)OC(C)(C)C)cc1 (centres undefined) | > 50 µM | > 50 µM | > 50 µM | < 50 µM | 2.24 µM | 2.24 µM | < 50 µM | 6.24 µM | 6.24 µM |  |  |  |  |  |  |  |  | 
19 | COc1ccc(CN(CC(OS(=O)(=O)c2ccc(F)cc2)c2ccccc2)C(=O)OC(C)(C)C)cc1 (centres undefined) | > 50 µM | > 50 µM | > 50 µM | < 50 µM | 2.76 µM | 2.76 µM | < 50 µM | 23.2 µM | 23.1 µM |  |  |  |  |  |  |  |  | 
20 | CC(C)(C)OC(=O)N(Cc1ccc(F)cc1)CC(OS(=O)(=O)c1cccc(Cl)c1Cl)c1ccccc1 (centres undefined) | > 50 µM | > 50 µM | > 50 µM | < 50 µM | 0.53 µM |  | < 50 µM | 7.46 µM | 7.46 µM | < 50 µM | 14.7 µM | 14.7 µM |  |  |  |  |  | 
21 | CC(C)(C)OC(=O)N(Cc1ccc(F)cc1)CC(OS(=O)(=O)c1c(Cl)cccc1Cl)c1ccccc1 (centres undefined) | > 50 µM | > 50 µM | > 50 µM |  |  |  |  |  |  | < 50 µM | 12.5 µM | 12.5 µM |  |  |  |  |  | 
22 | CC(C)(C)OC(=O)N(Cc1ccc(F)cc1)CC(OS(=O)(=O)c1cccc([N+](=O)[O-])c1)c1ccccc1 (centres undefined) | > 50 µM | > 50 µM | > 50 µM |  |  |  |  |  |  | < 50 µM | 39.9 µM | 39.8 µM |  |  |  |  |  | 
23 | CC(C)(C)OC(=O)N(Cc1ccc(F)cc1)CC(OS(=O)(=O)c1ccc(F)cc1)c1ccccc1 (centres undefined) | > 50 µM | > 50 µM | > 50 µM |  |  |  |  |  |  | < 50 µM | 22.6 µM | 22.6 µM |  |  |  |  |  | 
24 | CC(C)(C)OC(=O)N(Cc1ccc(Cl)c(Cl)c1)CC(OS(=O)(=O)c1cccc(Cl)c1Cl)c1ccccc1 (centres undefined) | > 50 µM | > 50 µM | > 50 µM |  |  |  | < 50 µM | 23.3 µM | 23.3 µM |  |  |  |  |  |  |  |  | 
25 | CC(C)(C)OC(=O)N(Cc1ccc(Cl)c(Cl)c1)CC(OS(=O)(=O)c1cccc([N+](=O)[O-])c1)c1ccccc1 (centres undefined) | > 50 µM | > 50 µM | > 50 µM |  |  |  | < 50 µM | 24.4 µM | 24.4 µM |  |  |  |  |  |  |  |  | 
26 | CC(C)(C)OC(=O)N(Cc1ccc(Cl)c(Cl)c1)CC(OS(=O)(=O)c1ccc(F)cc1)c1ccccc1 (centres undefined) | > 50 µM | > 50 µM | > 50 µM |  |  |  | < 50 µM | 43.3 µM | 43.3 µM | < 50 µM | 15.3 µM | 15.3 µM |  |  |  |  |  | 
27 | COc1ccc(C(CN(Cc2ccccc2)C(=O)OC(C)(C)C)OS(=O)(=O)c2ccc(F)cc2)cc1 (centres undefined) | > 50 µM | > 50 µM | > 50 µM | < 50 µM | 22.8 µM | 22.9 µM |  |  |  |  |  |  |  |  |  |  |  | 
28 | COc1ccc(C(CN(Cc2ccccc2)C(=O)OC(C)(C)C)OS(=O)(=O)c2c(Cl)cccc2Cl)cc1 (centres undefined) | > 50 µM | > 50 µM | > 50 µM | < 50 µM | 13.5 µM | 13.6 µM |  |  |  |  |  |  |  |  |  |  |  | 
29 | COc1ccc(C(CN(Cc2ccccc2)C(=O)OC(C)(C)C)OS(=O)(=O)c2cccc(Cl)c2Cl)cc1 (centres undefined) | > 50 µM | > 50 µM | > 50 µM | < 50 µM | 14.9 µM | 14.9 µM | < 50 µM | 13.4 µM | 13.4 µM |  |  |  |  |  |  |  |  | 
30 | Cc1ccc(C(CN(Cc2ccccc2)C(=O)OC(C)(C)C)OS(=O)(=O)c2c(Cl)cccc2Cl)cc1 (centres undefined) | > 50 µM | > 50 µM | > 50 µM | < 50 µM | 4.39 µM | 4.4 µM |  |  |  |  |  |  |  |  |  |  |  | 
31 | Cc1ccc(C(CN(Cc2ccccc2)C(=O)OC(C)(C)C)OS(=O)(=O)c2cccc(Cl)c2Cl)cc1 (centres undefined) | > 50 µM | > 50 µM | > 50 µM |  |  |  | < 50 µM | 10.7 µM | 10.7 µM |  |  |  |  |  |  |  |  | 
